# In patent publication US20250059231A1, “Protease inhibitors” (priority 2021, published 2025):
# Where a SMILES comes first, the peptide text is derived from it. [ ]: non-standard residue; d: D form. The star is where a group is joined. Benzoyl(4-Ph) = O=C(c1ccc(-c2ccccc2)cc1)*; Palmitoyl = CCCCCCCCCCCCCCCC(=O)*; 3Pal = N[C@@H](Cc1cccnc1)C(=O)O; 4Pal = N[C@@H](Cc1ccncc1)C(=O)O; Myristoyl = CCCCCCCCCCCCCC(=O)*; Lauroyl = CCCCCCCCCCCC(=O)*; β3hK = NCCCC[C@H](N)CC(=O)O; X1 = FC(F)(F)c1ccc(CN*)cc1; Pip = O=C(O)[C@@H]1CCCCN1; Octanoyl = CCCCCCCC(=O)*; NHOctyl = CCCCCCCCN*; Propionyl = CCC(=O)*; NHPr = CCCN*
# Molecular target: T1, DENV protease (Dengue virus type 2, UniProt P29990)
# T1 construct: The virus-encoded dengue protease comprises the amino-terminal 180 amino acids of NS3 (NS3pro) of the polyprotein
# Assay: biochemical
# Settings: at 1 μM; read-out: inhibition of DENV
# Description: Dilutions were made starting from 10 mM stock solutions in DMSO and final concentrations were measured in triplicates. The inhibitors were preincubated for 15 min with DENV protease (100 nM) in the assay buffer (50 mM Tris-HCl pH 9.0, ethylene glycol (10% v/v), and 0.0016% Brij 58). The enzymatic reaction was initiated by the addition of the FRET substrate (final concentration 50 μM) to obtain a final assay volume of 100 μL per well. The enzymatic activity was monitored for 15 min and determined as a slope of relative fluorescence units per second (RFU/s) for each concentration. The mean of the triplicates were plotted against the corresponding concentration in CDDVault to determine the IC50-values. Analogous procedures were used to determine the inhibitory potency on WNV (Kühl et al., J. Med. Chem. 2020, 63 (15): 8179-8197) and ZIKA protease (Nitsche et al., ACS Med. Chem. Lett. 2019 Feb. 14; 10 (2): 168-174). For selectivity screening of active candidates, similar biochemical assays with human serine proteases trypsin (Weigel et al., J. Med. Chem. 2015, 58 (19), 7719-7733.) and/or thrombin (Nitsche et al., J. Med. Chem. 2013, 56 (21), 8389-8403) were used.
# T1 sequence (P29990 1398-1437): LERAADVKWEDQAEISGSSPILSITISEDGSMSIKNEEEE
# T1 sequence (P29990 1476-1653): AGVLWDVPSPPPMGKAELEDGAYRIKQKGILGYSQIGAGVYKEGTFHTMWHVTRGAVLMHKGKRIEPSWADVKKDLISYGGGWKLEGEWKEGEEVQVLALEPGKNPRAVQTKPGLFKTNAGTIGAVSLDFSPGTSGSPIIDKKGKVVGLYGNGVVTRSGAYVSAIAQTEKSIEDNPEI
row,Compound,inhibition at 1 µM [%]
1,CCCCCCCCCCCCCCCC(=O)N[C@@H](C)C(=O)N[C@@H](CCCCN)C(=O)N[C@@H](C)C(=O)N[C@H](C)C(N)=O [compound 148] (Palmitoyl-AKA[dA]-NH2),≥ 20

# Same assay, conditions: at 50 μM; read-out: inhibition of DENV
row,Compound,inhibition at 50 µM [%]
1,CCCCCCCCCCCCCCCC(=O)N[C@@H](CCCCN)C(=O)N[C@@H](C)C(=O)N[C@@H](C)C(=O)N[C@H](C(N)=O)c1ccc(OCc2ccccc2)cc1 [compound 139],≥ 25
2,CCCCCCCCCCCCCCCC(=O)N[C@@H](CCc1c[nH]cn1)C(=O)N[C@@H](CCC(N)=O)C(=O)N[C@@H](Cc1ccccc1)C(N)=O [compound 59],≥ 25
3,CCCCCCCCCCCCCCCC(=O)N[C@@H](CCCCN)C(=O)N[C@@H](C)C(=O)N[C@@H](CCCCN)C(=O)NS(=O)(=O)C1CC1 [compound 178],≥ 25
4,C[C@H](NC(=O)c1ccc(-c2ccccc2)cc1)C(=O)N[C@@H](CCCNC(=N)N)C(=O)N[C@@H](CCC(N)=O)C(=O)N[C@@H](CCCCN)C(N)=O [compound 37] ({Benzoyl(4-Ph)}-ARQK-NH2),≥ 25
5,CCCCCCCCCCCCCCCC(=O)N[C@@H](C)C(=O)N1C[C@@H](Oc2ccncc2)C[C@H]1C(=O)N[C@@H](C)C(=O)N[C@@H](CCCCN)C(N)=O [compound 7],≥ 25
6,CCCCCCCCCCCCCCCC(=O)N[C@@H](CCCCN)C(=O)N1CCCC[C@H]1C(=O)N[C@@H](Cc1cnc[nH]1)C(=O)N[C@@H](CCCCN)C(N)=O [compound 14] (Palmitoyl-K[Pip]HK-NH2),≥ 25
7,CCCCCCCCCCCCCCCC(=O)N[C@@H](Cc1c[nH]c(N)n1)C(=O)N[C@@H](CCC(N)=O)C(=O)N[C@@H](Cc1ccccc1)C(N)=O [compound 62],≥ 25
8,CCCCCCCCCCCCCCCC(=O)N[C@@H](CCCCN)C(=O)N[C@@H](CCCCN)C(N)=O [compound 110],≥ 25
9,CCCCCCCCCCCCCCCC(=O)N[C@@H](CCCCN)C(=O)N[C@@H](C)C(=O)N1CCC[C@H]1C(=O)N[C@@H](CCCCN)C(N)=O [compound 133] (Palmitoyl-KAPK-NH2),≥ 25
10,CCCCCCCCCCCCCCCC(=O)N[C@@H](CCCCN)CC(=O)N[C@@H](C)C(=O)N[C@@H](C)C(=O)N[C@@H](CCCCN)C(N)=O [compound 82] (Palmitoyl-[β3hK]AAK-NH2),≥ 25
11,CCCCCCCCCCCC(=O)N[C@@H](C)C(=O)N[C@@H](CCCCN)C(=O)N[C@@H](C)C(=O)N[C@H](C)C(N)=O [compound 152] (Lauroyl-AKA[dA]-NH2),≥ 25
12,CCCCCCCCCCCCCCCCNC(=O)[C@H](CCCCN)NC(=O)C[C@H](C)NC(=O)[C@H](C)NC(=O)C[C@@H](N)CCCCN [compound 83],≥ 25
13,CCCCCCCCCCCCCCCC(=O)N[C@@H](CCCCN)C(=O)N1CCC[C@H]1C(=O)N[C@@H](C)C(=O)N[C@@H](CCCCN)C(=O)NS(=O)(=O)C1CC1 [compound 127],≥ 25
14,CCCCCCCCCCCCCCCC(=O)N[C@@H](CCCCN)C(=O)N[C@@H](C)C(=O)N[C@@H](C)C(=O)N[C@H](CCCCN)C(=O)NS(=O)(=O)C1CC1 [compound 135],≥ 25
15,CCCCCCCCCCCCCCCC(=O)N[C@@H](CCCCN)CC(=O)N[C@@H](C)C(=O)N[C@@H](C)CC(=O)N[C@H](CCc1ccccc1)C(N)=O [compound 91],≥ 25
16,CCCCCCCCNC(=O)[C@H](CCCCN)NC(=O)[C@H](CCCNC(=N)N)NC(=O)[C@H](C)NC(=O)[C@H](CCCNC(=N)N)NC(=O)CCCCCCC [compound 29] (Octanoyl-RARK-NHOctyl),≥ 25
17,CCCCCCCCCCCCCCCC(=O)N[C@@H](CCCCN)C(=O)N[C@@H](C)C(=O)N[C@@H](Cc1cnc[nH]1)C(N)=O [compound 166] (Palmitoyl-Lys-Ala-His-NH2),≥ 25
18,CC(=O)N[C@@H](C)C(=O)N[C@@H](CCCNC(=N)N)C(=O)N[C@@H](CCC(N)=O)C(=O)N[C@@H](Cc1ccccc1)B(O)O [compound 61],≥ 25
19,CCCCCCCCCCCCCCCC(=O)N[C@@H](CCCCN)C(=O)N[C@@H](C)C(=O)N[C@@H](C)C(=O)N[C@H](CCCCN)c1nnc(C)o1 [compound 2],≥ 25
20,CCCCCCCCCCCCCCCC(=O)N[C@H](CCCCN)C(=O)N[C@@H](C)C(=O)N[C@@H](CCCCN)C(N)=O [compound 159] (Palmitoyl-[dK]-Ala-Lys-NH2),≥ 25
21,CCCCCCCCCCCCCCCC(=O)N[C@@H](CCCCN)C(=O)N[C@H](C)C(=O)N[C@@H](C)C(=O)N[C@@H](CCCCN)C(N)=O [compound 158] (Palmitoyl-K[dA]AK-NH2),≥ 25
22,CCCCCCCCCCCCCCCC(=O)N[C@@H](CCCCN)C(=O)N[C@@H](C)C(=O)N[C@@H](CCCCN)C(=O)O [compound 188] (Palmitoyl-Lys-Ala-Lys-OH),≥ 25

row,Compound,inhibition at 50 µM [%]
1,C[C@H](NC(=O)c1ccc(-c2ccccc2)cc1)C(=O)N[C@@H](CCCNC(=N)N)C(=O)N[C@@H](CCC(N)=O)C(=O)N[C@@H](CCCCN)C(=O)NCc1ccc(C(F)(F)F)cc1 [compound 38] ({Benzoyl(4-Ph)}-ARQK-X1),≥ 25
2,C[C@H](NC(=O)[C@H](C)NC(=O)[C@H](CCCCN)NC(=O)c1ccc(-c2ccccc2)cc1)C(=O)N[C@@H](CCCCN)C(=O)NCc1ccc(C(F)(F)F)cc1 [compound 89] ({Benzoyl(4-Ph)}-KAAK-X1),≥ 25
3,CCCCCCCCCCCCCCCC(=O)N[C@@H](C)C(=O)N[C@@H](C)C(=O)N[C@@H](C)C(=O)N[C@H](CCCCN)C(N)=O [compound 150] (Palmitoyl-AAA[dK]-NH2),≥ 25
4,CCCCCCCCCCCCCCCC(=O)N[C@@H](CCCCN)C(=O)N1CCC[C@H]1C(=O)N[C@@H](C)C(=O)N[C@@H](CCc1c[nH]cn1)C(N)=O [compound 165],≥ 25
5,CCCCCCCCCCCCCCCC(=O)N[C@@H](C)C(=O)N[C@@H](CCCCN)C(=O)N[C@@H](C)C(=O)N[C@H](C)C(N)=O [compound 148] (Palmitoyl-AKA[dA]-NH2),≥ 25
6,CCCCCCCCCCCCCCCC(=O)N[C@@H](CCCCN)C(=O)N1CCC[C@H]1C(=O)N[C@@H](C)C(=O)N[C@@H](Cc1c[nH]cn1)C(N)=O [compound 163] (Palmitoyl-KPAH-NH2),≥ 25
7,CCCCCCCCCCCCCCCCNC(=O)[C@H](CCCCN)NC(=O)[C@H](C)NC(=O)[C@@H](N)CCCCN [compound 98],≥ 25
8,CCCCCCCCCCCCCCCC(=O)N[C@@H](Cc1ccncc1)C(=O)N[C@@H](CCC(N)=O)C(=O)N[C@@H](Cc1ccccc1)C(N)=O [compound 63] (Palmitoyl-[4Pal]-Gln-Phe-NH2),≥ 25
9,CCCCCCCCCCCCCCCC(=O)N[C@@H](C)C(=O)N[C@@H](C)C(=O)N[C@@H](CCCCN)C(=O)N[C@H](C)C(N)=O [compound 149] (Palmitoyl-AAK[dA]-NH2),≥ 25
10,CCCCCCCCCCCCCCCC(=O)N[C@@H](CCCNC(=N)N)C(=O)N[C@@H](CCC(N)=O)C(=O)N[C@@H](Cc1ccccc1)B(O)O [compound 60],≥ 25
11,CCCCCCCCCCCCCC(=O)N[C@@H](CCCCN)C(=O)N[C@@H](C)C(=O)N[C@@H](C)C(=O)N[C@H](CCCCN)C(N)=O [compound 151] (Myristoyl-KAA[dK]-NH2),≥ 25
12,CCCCCCCCCCCCCCCC(=O)N[C@@H](CCCCN)C(=O)N[C@@H](Cc1c[nH]cn1)C(N)=O [compound 162],≥ 25
13,CCCCCCCCCCCCCCCC(=O)N[C@@H](Cc1cccnc1)C(=O)N[C@@H](CCC(N)=O)C(=O)N[C@@H](Cc1ccccc1)C(N)=O [compound 64] (Palmitoyl-[3Pal]-Gln-Phe-NH2),≥ 25
14,CCCCCCCCCCCCCCCC(=O)N[C@@H](CCCCN)C(=O)N[C@@H](C)C(=O)N[C@H](CCCCN)C(N)=O [compound 160] (Palmitoyl-Lys-Ala-[dK]-NH2),≥ 25
15,CCCCCCCCCCCCCCCC(=O)N[C@@H](CCCCN)C(=O)N[C@@H](C)C(=O)N[C@@H](C)C(=O)N[C@H](Cc1c[nH]c2ccccc12)C(N)=O [compound 93] (Palmitoyl-KAA[dW]-NH2),≥ 25
16,CCCCCCCCCCCCCCCC(=O)N[C@@H](CCCCN)C(=O)N[C@@H](C)C(=O)N[C@@H](C)C(=O)N[C@H](CCCCN)C(=O)O [compound 134] (Palmitoyl-KAA[dK]-OH),≥ 25
17,CCCCCCCCNC(=O)[C@H](CCCCN)NC(=O)[C@H](CCCCN)NC(=O)[C@H](CCCCN)NC(=O)[C@H](CC(C)C)NC(=O)CCCCCCC [compound 19] (Octanoyl-LKKK-NHOctyl),≥ 25
18,CCCCCCCCCCCCCCCC(=O)N[C@@H](CCCNc1ncc[nH]1)C(=O)N[C@@H](CCC(N)=O)C(=O)N[C@@H](Cc1ccccc1)C(N)=O [compound 65],≥ 25
19,CCCCCCCCCCCCCCCC(=O)N[C@@H](CCCCN)C(=O)N[C@@H](CCCNC(=N)N)C(N)=O [compound 111] (Palmitoyl-Lys-Arg-NH2),≥ 25
20,CCCNC(=O)[C@H](CCCCN)NC(=O)[C@H](CCCCN)NC(=O)[C@H](CCCCN)NC(=O)[C@H](C)NC(=O)CC [compound 21] (Propionyl-AKKK-NHPr),≥ 25
21,CCCCCCCCCCCCCCCC(=O)N[C@@H](CCCCN)C(=O)N1CCCC[C@H]1C(=O)N[C@@H](C)C(=O)N[C@@H](CCCCN)C(N)=O [compound 15] (Palmitoyl-K[Pip]AK-NH2),≥ 25

# Same assay, conditions: read-out: inhibition of DENV
row,Compound,inhibition at 50 µM [%]
1,C[C@H](NC(=O)[C@H](CCCCN)NC(=O)c1ccc(-c2ccccc2)cc1)C(=O)N[C@@H](CCCCN)CC(=O)NCc1ccc(C(F)(F)F)cc1 [compound 78],≥ 25
